Columns and labels:
[1] = test system: gastrointestinal mucosa, GPT, blood pressure; settings: rat, in vivo; for Gastroenteropathy % without L-NAME: 4 weeks
Description: The endothelial dysfunction is evaluated by determining the damage to the gastrointestinal mucosa, the hepatic damage and blood hypertension induced by administration of L-NAME.
The animals (rats) are divided in groups as herein below shown. The group receiving L-NAME is treated for 4 weeks with said compound dissolved at a concentration of 400 mg/litre in drinking water. The following groups are constituted (No. 10 animals for group):
(§1) • 1° group: only carrier (aqueous suspension 1% w/v of carboxymethylcellulose, dose: 5 ml/Kg when the drug is administered by os, phisiologic solution when administered parenterally), • 2° group: carrier+L-NAME, B) Groups Administered with the Drug: • 3° group: carrier+drug, • 4° group: carrier+drug+L-NAME.
The administration routes are those known for the drug, and can be the oral or subcutaneous, intraperiteneal, intravenous or intramuscular route. […] The drug is administered once a day for 4 weeks.
At the end of the four weeks treatment access to water is prevented and after 24 hours the animals are sacrificed.
One hour before the sacrifice blood-pressure is determined, and a blood pressure increase is taken as an evaluation of the damage to vascular endothelium. […] The hepatic damage is determined by evaluation of the glutamic-pyruvic transaminase (GPT increase) after sacrifice.
Test 3-Experimental in Vivo Model with N^w-nitro-L-arginine-methyl ester (L-NAME): Gastric Tolerability (Gastrointestinal Damage Incidence), Hepatic (GPT Dosage, Glutamic-pyruvic Transaminase) and Cardiovascular (Blood Pressure) Tolerability of Some Drugs Screened as Precursors of the Compounds of the Invention.
The endothelial dysfunction is evaluated by determining the damage induced by L-NAME administration to the gastrointestinal mucosa, the hepatic damage (GPT increase), and the vascular endothelium or cardiovascular damage as blood hypertension.
The animals (rats, average weight 200 g) are divided in groups as herein below described. The group receiving L-NAME is treated for 4 weeks with said compound dissolved at the concentration of 400 mg/litre in drinking water. The following groups (No. 10 animals for group) are constituted:
as §1, with “group: treatment:” for “group:”, “physiologic” for “phisiologic”, “by parenteral route),” for “administered parenterally),”, “Treated” for “Administered”
Each drug is administered once a day for 4 weeks.
At the end of the four weeks access to water is prevented and after 24 hours the animals are sacrificed.
One hour before the sacrifice blood pressure is determined and a blood pressure increase is taken as an indication of a damage being occurred to vascular endothelium.
The hepatic damage is determined by evaluation after the sacrifice of the glutamic-pyruvic transaminase (GPT increase).
The % gastric lesions have been determined as in Test 1.

gastrointestinal mucosa = experiment: Test 1 (NEM): gastric tolerability of precursor drugs in rats treated or not with N-ethylmaleimide
Description: The animals (rats) are distributed in the following groups (no. 10 animals for group):
• 1° group: treatment: only carrier (aqueous suspension 1% w/v of carboxymethylcellulose, dose: 5 ml/Kg when the drug is administered by os, or a physiologic solution when parenterally administered, i.e. by subcutaneous, intraperitoneal, intravenous or intramuscular route), • 2° group: treatment: carrier as above defined+NEM, B) Groups Treated with the Drug: • group I: treatment: carrier+drug, • group II: treatment: carrier+drug+NEM.
The administration routes are those known for the drug, and can be the oral or subcutaneous, intraperitoneal, intravenous or intramuscular route.
(§2) The animals are sacrificed after 24 hours and then one proceeds to the evaluation of the damage to the gastrointestinal mucosa.
Test 1—Experimental Model in Vivo with N-ethylmaleimide (NEM): Study of the Gastric Tolerability of Some Drugs Screened as Precursors of the Compounds of the Invention.
The animals (rats, weight about 200 g) are distributed in the following groups (No. 10 animals for group):
• 1° group: treatment: only carrier (aqueous suspension 1% w/v of carboxymethylcellulose, dose: 5 ml/Kg when the drug is administered by os, physiologic solution when by parenteral route), • 2° group: treatment: carrier+NEM B) Groups Administered with Each Drug: • group I: treatment: carrier+drug, • group II: treatment: carrier+drug+NEM.
The drug is administered one hour later, in suspension in the carrier. Animals are sacrificed after 24 hours and evaluation of the damage to the gastrointestinal mucosa is made by counting the number of rats, inside each group, with lesions to the stomach at a visual inspection. The total number of said rats is then divided by the total number of rats of the group and multiplied by 100.

rats = experiment: in vivo; settings: rats not treated with NEM, single dose, s.c.
Description: as §2

[2] = Test 4: inhibition of radical production from DPPH; settings: tested substance 100 μM in methanol, 30 minutes, absorbance 517 nm
Description: Test 4 is a colorimetric test which must not be satisfied by the precursor of B or B1 (precursor of the X2 or X2a of the formulas (I) and (II) respectively). The inhibition of the production of radicals from DPPH (2,2-diphenyl-1-picryl-hydrazyl) is described in M. S. Nenseter et Al., Atheroscler. Thromb. 15, 1338-1344, 1995. 100 μM solutions in methanol of the tested substances are prepared, and an aliquot of each of said solutions is added to a DPPH solution in methanol 0.1 M. After having stored the solutions at room temperature away from light for 30 minutes, their absorbances are read at the wave length of 517 nm, together with that of the corresponding DPPH solution at the same concentration. The absorbance decrease with respect to that of the solution of DPPH at the same concentration of the test solutions is determined. The effectiveness of the tested compound in inhibiting formation of radicals by DPPH is expressed by the following formula: (1−AS/AC)×100 wherein AS and AC are respectively the absorbance values of the solution containing the test compound together with DPPH and of the solution containing only DPPH. Test 4 is satisfied when the inhibition is equal or greater than 50%.
Test 4: Inhibition of the Radical Production from DPPH of Some Substances Used as Precursors of B or B1 (Ref. Formulas I and II of the Invention)
The method is based on a calorimetric test in which DPPH (2,2-diphenyl-1-picryl-hydrazyl) is used as the compound-forming radicals (M. S. Nenseter et Al., Atheroscler. Thromb. 15, 1338-1344, 1995).
Solutions in methanol of the tested substances at a final concentration 100 μM are initially prepared. 0.1 ml of each of these solutions are added to aliquots of 1 ml of a methanol solution 0.1 M of DPPH and then the final volume is brought to 1.5 ml. After having stored the solutions at room temperature away from light for 30 minutes, the absorbance at the wave length of 517 nm is read. It is determined the absorbance decrease with respect to the absorbance of a solution containing the same concentration of DPPH.
The efficacy of the test compound to inhibit the production of radicals, or antiradical activity, is expressed by the following formula: (1−AS/AC)×100 wherein AS and AC are, respectively, the absorbance values of the solution containing the test compound together+DPPH and of the solution containing only DPPH.

[3] = Test 5: inhibition of radical production from FeII (deoxyribose degradation); settings: 10^-4 M methanolic solution, 37° C. one hour, absorbance 532 nm
Description: Test 5 is a […] test wherein 0.1 ml aliquots of 10^−4 M methanolic solutions of the tested products are added to test tubes containing a solution formed by 0.2 ml of 2 mM desoxyribose, 0.4 ml of phosphate buffer pH 7.4 100 mM and 0.1 ml of 1 mM Fe^II(NH4)2(SO4)2 in 2 mM HCl. The test tubes are then maintained at 37° C. for one hour. Then in each test tube 0.5 ml of a 2.8% solution in water of trichloroacetic acid and 0.5 ml of an aqueous 0.1 M solution of thiobarbituric acid are added, in the order. A reference blank is formed by adding to a test tube containing only the above described aqueous solution of reactants 0.1 ml of methanol. The test tubes are closed and heated in an oil bath at 100° C. for 15 minutes. A pink coloration is developed the intensity of which is proportional to the quantity of desoxyribose undergone to radical oxidative degradation. The solutions are cooled at room temperature and their absorbances are read at 532 nm against the blank. The inhibition induced by the precursor of B or B1 or C=-Tc-Y—H in the confront of radical production by Fe^II is determined by means of the following formula: (1−As/Ac)×100 wherein As and Ac are respectively the absorbance values of the solution containing the tested compound+the iron salt and that of the solution containing only the iron salt, the compound meets test 5 when the inhibition percentage of radical production as above defined from the precursor of B or B1 or C=-Tc-Y—H is higher than or equal to 50%. […]
0.1 ml aliquots of 10^−4 M methanolic solutions of 4-thiazolidin carboxylic acid and 2-oxo-4-thiazolidin carboxylic acid are added to test tubes containing an aqueous solution formed by mixing 0.2 ml of 2 mM deoxyribose, 0.4 ml of buffer phosphate pH 7.4 100 mM and 0.1 ml of 1 mM Fe^II(NH4)2(SO4)2 in 2 mM HCl. […] A pink coloration develops the intensity of which is proportional to the quantity of deoxyribose undergone to radical oxidative degradation. The solutions are cooled at room temperature and their absorbances at 532 nm are read against the blank. […]

gastric mucosa = experiment: Example F6: gastric tolerability of invention compounds versus precursor drugs, with or without L-NAME; type: in vivo, rats; settings: rat, in vivo, 4 weeks
Description: Gastric Tolerability Test of the Compounds According to the Invention in the Confront of the Corresponding Precursor Drugs in Conditions of Endothelial Dysfunctions Induced by L-NAME (N^w-nitro-L-arginine-methyl ester).

[4] = test system: Human endothelial cells of the umbilical vein; experiment: Test 2 (CIP): apoptosis (DNA fragmentation) induced by cumene hydroperoxide in endothelial cells; type: cell-based; settings: drug 10^-4 M; for inhibition of apoptosis induced by CIP (in words, t Student p<0.01): CIP 5 mM
Description: Test 2 (CIP): Protection parameter of endothelial cell against the oxidative stress induced by cumene hydroperoxide (CIP).
Human endothelial cells of the umbilical vein are prepared according to an usual standard procedure. Fresh umbilical veins are filled with a 0.1% by weight collagenase solution and incubated at 37° C. for 5 minutes.
The cells are collected from the perfusate by centrifugation and harvested in culture flasks T-75, pretreated with human fibronectin. The cells are then harvested in the same medium, further added with 10 ng/ml of bovine hypothalamic growth factor. When the cells of the primary cell culture (i.e. that directly obtained from ex-vivo) form a single layer of confluent cells (about 8,000,000 cells/flask), the culture is stopped and the layers washed and trypsinized. The cellular suspensions are transferred into the wells of a cell culture plate having 24 wells, half of which is then additioned with the same culture medium containing the drug at a 10^−4M concentration, and harvested in a thermostat at 37° C. at a constant moisture. Only the cells coming from said first sub-cultures are used for the experiments with cumene hydroperoxide (CIP).
Before starting the test, the cellular culture medium is removed and the cellular layers are carefully washed with a physiologic solution at a temperature of 37° C. The wells of the culture plate are then incubated for one hour with CIP at a 5 mM concentration in the culture medium. […] 5 replicates for each sample are carried out.
Human endothelial cells of the umbilical vein are prepared according to a standard method. Fresh umbilical veins are filled with a collagenase solution 0.1% by weight and incubated at 37° C. for 5 minutes.
The cells are collected from the perfusate by centrifugation at 800 rpm and harvested in culture flasks T-75, pretreated with human fibronectin. Cells are then harvested in the same medium, added with bovine hypothalamic growth factor (100 ng/ml). When the cells of the primary cell culture (the cells directly removed from ex-vivo umbilical vein) form a single layer of confluent cells (about 8,000,000 cells/flask), harvesting is stopped and the layers are washed and trypsinized. The cellular suspensions are transferred into wells of a culture plate having 24 wells, half of said wells being added with the same culture medium containing the drug at a 10^−4M concentration, and harvested in a thermostat at 37° C. at a constant moisture (90%), CO2=5%. When the drug is not soluble in the culture medium, it is formerly dissolved in a small amount of dimethylsulphoxide. The maximum amount of dimethylsulphoxide which can be added to the culture medium is 0.5%. Only the cells coming from these first subcultures are used for the tests with cumene hydroperoxide (CIP). The cells are identified as endothelial cells by morphological examination and by the specific immunological reaction towards factor VIII; these cultures did never show contaminations from myocytes or fibroblasts.
Before starting the test, the cellular culture medium is removed and the cellular layers are carefully washed with a standard physiologic solution buffered with phosphate 0.1 M pH 7.0, at the temperature of 37° C. The content of each well is then incubated for one hour with a CIP suspension in the culture medium at a 5 mM concentration. Evaluation of the cellular damage (apoptosis) is carried out by determining the percent variation of the DNA fragmentation in the cultures containing the drug+CIP with respect to the controls treated with CIP only. […] The fluorescence of each sample was determined on 5 replicates. Statistic evaluation has been made with t Student test (p<0.01).

in vivo = settings: rat, in vivo
Description: as §2

SMILES: CCCCC(C)(O)C/C=C/[C@H]1[C@H](O)CC(=O)[C@@H]1CCCCCCC(=O)OC (mixture of isomers) [Misoprostol]
- GPT % without L-NAME [1]: 100%
- Gastroenteropathy % without L-NAME [1]: 0%
- Gastro-enteropathy (% incidence) with NEM (gastrointestinal mucosa; rats, NEM 25 mg/kg s.c. one hour before drug at maximum tolerated dose, sacrifice after 24 hours): 0%
- Gastro-enteropathy (% incidence) without NEM (gastrointestinal mucosa; rats, single maximum tolerated dose, sacrifice after 24 hours, without NEM): 0%
- maximum tolerated dose (dose (mg/Kg)/admin. route) (rats): 0.5/s.c. mg/Kg

SMILES: O=C(O)C1CSCN1 (stereo not shown) [4-thiazolidin carboxylic acid]
- % inhibition radical production from DPPH [2]: 0%
- % inhibition radical production from DPPH ([2]; listed as 4-Thiazolidincarboxylic acid): does not inhibit at any extent
- % Radical Inhibition from Fe^II [3]: 100%

SMILES: Nc1c(Br)cc(Br)cc1CN[C@H]1CC[C@H](O)CC1 [Ambroxol, 4-[(2-amino-3,5-dibromophenyl)methylamino]cyclohexanol]
- % gastropathy, animals not treated with L-NAME (gastric mucosa): 60%
- % gastropathy, animals treated with L-NAME (gastric mucosa): 80%
- activity at 100 µM ([4]; Homo sapiens, Endothelial cell, 1 h, CIP 5 mM for one hour, DNA fragmentation, read-out: Apoptosis % with respect to the controls treated only with CIP): 70%
- inhibition of apoptosis induced by CIP (in words, t Student p<0.01) [4]: inhibit apoptosis
- Gastro-enteropathy (% incidence) without NEM (gastrointestinal mucosa; rat, in vivo, 24 h): 0%
- MTD at 24 h (in vivo; po): 25 mg/kg

SMILES: COc1ccc2[nH]c([S+]([O-])Cc3ncc(C)c(OC)c3C)nc2c1 (stereo not shown) [Omeprazol]
- GPT % without L-NAME [1]: 100%
- Gastroenteropathy % without L-NAME [1]: 0%
- inhibition of apoptosis induced by CIP (in words, t Student p<0.01) [4]: do not significantly inhibit apoptosis
- Gastro-enteropathy (% incidence) without NEM (gastrointestinal mucosa; rat, in vivo, 24 h): 0%
- MTD at 24 h (in vivo; sc): 30 mg/kg

SMILES: Nc1c2c(nc3ccccc13)CCCC2 [Tacrine]
- % gastropathy, animals not treated with L-NAME (gastric mucosa): 80%
- % gastropathy, animals treated with L-NAME (gastric mucosa): 70%
- inhibition of apoptosis induced by CIP (in words, t Student p<0.01) [4]: do not significantly inhibit apoptosis
- Gastro-enteropathy (% incidence) without NEM (gastrointestinal mucosa; rat, in vivo, 24 h): 0%
- MTD at 24 h (in vivo; sc): 1 mg/kg

SMILES: N[C@@H](Cc1c[nH]cn1)C(=O)O [histidine]
- % inhibition radical production from DPPH [2]: 0%
- % Radical Inhibition from Fe^II [3]: 90%

SMILES: O=C(O)CCC(=O)O [succinic acid]
- % inhibition radical production from DPPH [2]: 0%
- % Radical Inhibition from Fe^II [3]: 90%

Source: US7402600B2, “Nitroderivatives of cardiovascular agents” (NicOx S.A., priority 1999, dated 2008)
